Experiments:
Type in all cases: cell-based, human
[1] = tested on: umbilical cord blood-derived CD34+ hematopoietic stem cell; test: Morphological change and polyploidization of CD34+ hematopoietic stem cells cocultured with OP9 stromal cells
Description: (§1) The OP9 stromal cell line was aliquoted into 6-well culture plate at a density of 1×10^5/well, and cultured for 24 hrs as a monolayer in a-MEM supplemented with 20% heat-inactivated FBS, 0.5% penicillin/streptomycin and 1.5 g/L sodium bicarbonate. When the OP9 stromal cell line was cultured as a monolayer, the media was replaced with StemSpan™ H3000 for CD34+ hematopoietic stem cell culture. Then, the CD34+ hematopoietic stem cells were aliquoted upper the op cells at a density of 3×10^5/well.
In order to confirm the distinct morphological change of the umbilical cord blood-derived CD34+ hematopoietic stem cell treated with the compound of Formula 1, the cells were treated with the compound of Formula 1 and the known hematopoietic stem cell differentiation inducers, CC100, CC200, IL-3, IL-6, TPO and SCF, so as to investigate morphological changes and polyploidization of the CD34+ hematopoietic stem cell.
The CD34+ hematopoietic stem cells cocultured with OP9 cells through Example 1 were treated with each of the materials. The cells were treated with each of the hematopoietic stem cell differentiation inducers at a following concentration; CC100 (rhFlt-3 ligand 100 ng/ml, SCF 100 ng/ml, IL-3 20 ng/ml, IL-6 20 ng/ml), CC200 (rhTPO 50 ng/ml, rhSCF 50 ng/ml, IL-3 10 ng/ml), Megacult-C (TPO 5 ng/ml, IL-3 1 ng/ml, IL-6 2 ng/ml), IL-3 of 10 ng/ml, IL-6 of 20 ng/ml, SCF of 50 ng/ml, and (R)-NALPCE of 45 μg/ml.
After 8 days, the cells were photographed by Mag. ×200 to examine the morphological changes (FIG. 1).
In addition, polyploidization of the cells was analyzed by FACS (flow cytometer). The cells were harvested and resuspended with 1×PBS containing 0.1% saponin. 10 mg/mL RNAse A and propidium iodide solution were added thereto. Thereafter, the cells were incubated at room temperature for 30 min. The cells were analyzed by FACS caliber flow cytometer and Cell quest software. Results are means±SD (n=3). Similar results were obtained in three independent experiments (FIG. 1).

K562 cells [2] = test: Oligonucleotide array (genechip) of gene expression during megakaryocytic differentiation; conditions: K562 cells treated with 50 μg/ml vs undifferentiated cells
Description: (§2) The OP9 stromal cell line was aliquoted into 6-well culture plate at a density of 1×10^5/well, and cultured for 24 hrs as a monolayer in a-MEM supplemented with 20% heat-inactivated FBS, 0.5% penicillin/streptomycin and 1.5 g/L sodium bicarbonate. When the OP9 stromal cell line was cultured as a monolayer, the K562 cells were aliquoted upper the OP9 cells at a density of 1×10^5/well, and cocultured with the OP9 cells. These K562 cells were treated with (R)-NALPLE (see Korean Patent No. 10-0688261) at a concentration of 50 μg/ml to induce megakaryocytic differentiation.
mRNAs were extracted from normal K562 cells and compound-treated K562 cells by the method of Example 5. To understand the genetic events during megakaryocytic development, the K562 cells were incubated for 6, 12, 24, 48, 72, 96, and 120 hr with the compound, and mRNAs were extracted from each cell using an RNeasy mini kit (Qiagen, USA). A genechip analysis was performed using 1 μg of RNA and an oligonucleotide array from Macrogen.
From analyzed data, total 67 genes, of which expression levels were increased more than 5-fold in differentiated K562 cells, were assigned. The functional categories included transcription factor, receptor, miscellaneous function, select calcium binding protein, phosphatase, signaling molecule, select regulatory factor, protease, nucleic acid binding, cytoskeleton protein, kinase, cell adhesion molecule, transferase, synthase, hydrolase defense/immunity and molecular function unclassified. Among these genes, selected were 4 genes of which expression levels were increased more 10 fold in differentiated cells, such as KLF2 (Kiruppel-like factor2), LOC138255 (OTTHUMP00000021439), GDF15 (growth differentiation factor 15) and INHBE (inhibin, betaE).

K562 cells [3] = test: Polyploidization (FACS) and morphology of shRNA-transfected K562 cells cocultured on OP9 in (R)-NALPCE; conditions: 50 μg/mL for 4 days, cocultured on OP9, FIG. 4
Description: To confirm whether the selected genes regulate the differentiation into megakaryocyte and platelets, shRNAs capable of inhibiting expressions of the KLF2, LOC138255, GDF15, and INHBE genes were constructed, and K562 cells were transfected with shRNAs.
The transfected K562 cells were sorted by FACS Aria flow cytometer, and cocultured upper OP9 stromal cells in 50 μg/mL of (R)-NALPCE for 4 days. Then, the cells were analyzed with a fluorescence-activated cell sorter using Cell quest, and photographed by Mag. ×200. Results are means±SD (n=3). Similar results were obtained in three independent experiments (FIG. 4).

[4] = tested on: umbilical cord blood-derived CD34+ hematopoietic stem cells; test: CD41 / CD61 megakaryocyte-specific marker expression by FACS in CD34+ hematopoietic stem cells cocultured with OP9; conditions: FIG. 2
Description: as §1
In order to confirm whether the differentiation of the umbilical cord blood-derived CD34+ hematopoietic stem cells into megakaryocytes and platelets was induced by treatment of the compound of Formula 1, the cells were treated with the compound of Formula 1 and the known hematopoietic stem cell differentiation inducers, CC200 and Megacult-C, singly or in a mixture. Then, expression of megakaryocyte-specific marker, CD41 or CD61 was analyzed.
The CD34+ hematopoietic stem cells cocultured with OP9 cells through Example 1 were treated with each of the hematopoietic stem cell differentiation inducers at a following concentration; CC200 (rhTPO 50 ng/ml, rhSCF 50 ng/ml, IL-3 10 ng/ml), Megacult-C (TPO 5 ng/ml), and (R)-NALPCE 35 ug/ml in culture media.
After 8 days, the culture media were centrifuged (1,000 rpm, 10 min), and the cell pellets thus obtained were washed three times with PBS. The cells were incubated with 20 μl of Fluorescein isothiocyanate (FITC)-conjugated mouse anti-human monoclonal CD41 antibody (DAKOCycomation, Denmark) or 20 μl of Fluorescein isothiocyanate(FITC)-conjugated mouse anti-human monoclonal CD61 antibody (DAKOCycomation, Denmark) in 200 μl of 0.01% bovine serum albumin (BSA)-PBS at 37° C. for 30 min while spinning to realize homogeneous fluorescent staining. After centrifugation (1,000 rpm, 10 min), the cell pellets thus obtained were washed three times with 0.01% bovine serum albumin (BSA) in PBS. Fluorescence was analyzed on a fluorescence-activated cell sorter (FACS Aria) using a Cellquest program. Results are means±SD (n=3). […]

K562 cells [5] = test: RT-PCR of KLF2, LOC138255, GDF15 and INHBE mRNA during megakaryocytic development; conditions: 50 μg/ml, incubated 6, 12, 24, 48, 72, 96 and 120 hr, FIG. 3
Description: as §2
To analyze the expression patterns of the selected 4 genes, KLF2, LOC138255, GDF15, and INHBE during megakaryocytic development, RT-PCR was performed to measure the mRNA level in cells.
In order to specifically analyze their expression patterns during megakaryocytic development, the K562 cells were incubated for 6, 12, 24, 48, 72, 96, and 120 hr with the compound ((R)-NALPLE 50 μg/ml). Total cellular RNA was extracted from the K562 cells using an RNeasy mini kit following the manufacturer's instructions using M-MLV Reverse Transcriptase (Promega, Madison, Wis.), and RT-PCR was performed.
Amplification conditions were followed by 20 cycles (for GAPDH) or 25 cycles (for KLF2, LOC138255, GDF15, and INHBE) at 95° C. for 30 seconds, 60° C. for 60 seconds, and 72° C. for 90 seconds. The primers used were the following: • KLF2 forward primer (SEQ ID NO.1): 5′-[…]-3′ • reverse primer (SEQ ID NO.2);5′-CATGTGCCGTTTCATGTGC-3′ • LOC138255 forward primer )SEQ ID NO.3); 5′-[…]-3′ • reverse primer )SEQ ID NO. 4);5′-[…]-3′ • GDF15 forward primer 9SEQ ID NO. 5); 5′-[…]-3′ • reverse primer (SEQ ID NO. 6): 5′-[…]-3′ • INHBE forward primer (SEQ ID NO. 7); 5′-[…]-3′ • reversre primer (SEQ ID NO. 8);5′[…]-3′ • GARDH forward primer (SEQ ID NO. 9);5′-[…]-3′ • reverse primer (SEQ ID NO. 10);5′-[…]-3′
After PCR reaction, each reaction mixture was analyzed by 1% agarose gel electrophoresis, and the bands were visualized by ethidium bromide staining (FIG. 3).

## CCCCCCCCCCCCCCCCCC(=O)N[C@H](COP(=O)([O-])OCC[N+](C)(C)C)C(=O)OC [compound of Formula 1, N-steroyl-O-phosphocholine-D-serine methyl ester]
[1]; 45 μg/ml, after 8 days, cocultured with OP9 cells, photographed Mag. x200, FIG. 1
  morphological change (morphological feature of megakaryocytes): increase in cytoplasmic mass and cell size
[1]; 45 μg/ml, cocultured with OP9 cells, FIG. 1
  polyploidization (FACS, propidium iodide): high nucleus number due to polyploidization through endomitosis
[1]; addition of compound to CC200 (rhTPO 50 ng/ml, rhSCF 50 ng/ml, IL-3 10 ng/ml)
  megakaryocytic differentiation together with CC200, compared to each single treatment: more induced megakaryocytic differentiation
[1]; addition of compound to Megacult-C (TPO 5 ng/ml, IL-3 1 ng/ml, IL-6 2 ng/ml)
  megakaryocytic differentiation together with Megacult-C, compared to each single treatment: more induced megakaryocytic differentiation
K562 cells [2]
  GDF15 expression increase in differentiated cells (oligonucleotide array): > 10 fold
  INHBE expression increase in differentiated cells (oligonucleotide array): > 10 fold
  KLF2 expression increase in differentiated cells (oligonucleotide array): > 10 fold
  LOC138255 expression increase in differentiated cells (oligonucleotide array): > 10 fold
K562 cells [3]
  polyploidization of non-transfected K562 cells: high nucleus number due to polyploidization through the endomitosis
[4]; 35 ug/ml plus CC200, after 8 days
  expression level of CD41 or CD61, CC200 together with the compound vs single treatment of CC200: higher
[4]; 35 ug/ml plus Megacult-C (TPO 5 ng/ml), after 8 days
  expression level of CD41 or CD61, megacult-C together with the compound vs single treatment of megacult-C: higher
[4]; single treatment 35 ug/ml, after 8 days
  expression level of megakaryocyte-specific marker CD41 or CD61, compared with cells treated with CC200 or megacult-C: higher

## N-steroyl-O-phosphocholine-D-serine methyl ester [compound of Formula 1]
K562 cells [5]
  GDF15 gene expression pattern (RT-PCR): markedly expressed at 12 to 96 hr
  INHBE gene expression pattern (RT-PCR): markedly expressed at 12 to 96 hr
  KLF2 gene expression pattern (RT-PCR): markedly expressed at 12 to 96 hr
  LOC138255 gene expression pattern (RT-PCR): markedly expressed at 12 to 96 hr

Reference: US8137970B2, “Methods for inducing the differentiation of hematopoietic stem cells into megakaryocytes and platelets, and gene controlling the differentiation” (Ewha University-Industry Collaboration Foundation, priority 2008, dated 2012)
